Laboratory results published in PubChem BioAssay (NCI).
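Dose response: 5 concentrations. Exposure: 48 h. Format: 96-well plates. Endpoint: linear interpolation; highest concentration if not reached. Abbreviation: GI50, concentration required for 50% inhibition of growth. TGI marks complete inhibition of growth.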

Columns and labels:
Experiment in all cases: growth of human tumour cells (NCI), 48 h
[1] = tested on: A498 renal
[2] = tested on: IGROV1 ovarian
[3] = tested on: A549 NSCLC
[4] = tested on: RPMI-8226 leukemia
[5] = tested on: TK-10 renal
[6] = tested on: MDA-MB-231 breast
[7] = tested on: MDA-MB-435
[8] = tested on: RXF 393 renal
[9] = tested on: HT29 colon
[10] = tested on: LOX IMVI melanoma

In the case of `CCCc1n(Cc2ccc3ccccc3c2)cc[n+]1Cc1ccc2ccccc2c1`, the GI50 [1] is reported as 0.938 µM, the TGI [1] is reported as 3.78 µM and the GI50 [2] is reported as 0.779 µM. It also gave a TGI [2] of 2.42 µM, a GI50 [3] of 2.67 µM and a TGI [3] of 12.1 µM. For the same compound, the GI50 [4] was 0.399 µM, the TGI [4] was 1.67 µM and the GI50 [5] was 1.28 µM. For the same compound, the TGI [5] was 2.7 µM, the GI50 [6] was 1.06 µM and the TGI [6] was 2.54 µM. For the same compound, the GI50 [7] was 0.564 µM, the TGI [7] was 2.06 µM and the GI50 [8] was 1.13 µM. For the same compound, the TGI [8] was 2.49 µM, the GI50 [9] was 0.513 µM and the TGI [9] was 1.89 µM. For the same compound, the GI50 [10] was 0.926 µM and the TGI [10] was 2.19 µM.

In the case of `C=C1CC2(CC(c3ccccc3Cl)OC(c3ccccc3Cl)C2)OC1=O` (centres undefined), the TGI [1] is reported as 21.3 µM, the TGI [2] is reported as 4.62 µM and the TGI [3] is reported as 21.2 µM. It also gave a TGI [4] of 3.84 µM, a TGI [5] of 9.03 µM and a TGI [6] of 3.45 µM. The TGI [7] was 3.51 µM, the TGI [8] was 4.77 µM and the TGI [9] was 6.68 µM. The TGI [10] was 2.72 µM.

`COC1C(O)CC(OC2CC(OC3CC(O[C@@H]4C(=O)c5c(cc6cc(OC7CC(OC8CC(O)C(O)C(C)O8)C(O)C(C)O7)c(C)c(O)c6c5O)CC4[C@H](OC)C(=O)O)OC(C)C3O)OC(C)C2O)OC1C` (some centres undefined) showed a GI50 [1] of 0.725 µM, a TGI [1] of 2.6 µM and a GI50 [2] of 1.76 µM. For the same compound, the TGI [2] was over 33.3 µM, the GI50 [3] was 1.66 µM and the TGI [3] was over 33.3 µM. It also gave a GI50 [4] of 1.73 µM, a TGI [4] of over 33.3 µM and a GI50 [5] of 4.56 µM. It also gave a TGI [5] of over 33.3 µM, a GI50 [6] of 4.43 µM and a TGI [6] of over 33.3 µM. For the same compound, the GI50 [7] was 2.56 µM, the TGI [7] was 24.7 µM and the GI50 [8] was 1.1 µM. The TGI [8] was 4.22 µM, the GI50 [9] was 2.55 µM and the TGI [9] was 17.9 µM. The GI50 [10] was 0.983 µM and the TGI [10] was 5.07 µM.

`C=C(CN1CCN(c2ccc(C(F)(F)F)cc2)CC1)c1ccc(C(=O)Nc2ccccc2N)cc1` showed a GI50 [1] of 7.67 µM, a TGI [1] of 61.5 µM and a GI50 [2] of 18.2 µM. The TGI [2] was over 100 µM, the GI50 [3] was 6.43 µM and the TGI [3] was 45.5 µM. It also gave a GI50 [4] of 0.405 µM, a GI50 [5] of 21 µM and a TGI [5] of over 82.4 µM. It also gave a GI50 [6] of 3.6 µM, a TGI [6] of over 71.3 µM and a GI50 [7] of over 25.2 µM. It also gave a TGI [7] of over 100 µM, a GI50 [8] of 1.97 µM and a TGI [8] of 6 µM. The GI50 [9] was over 75.7 µM, the TGI [9] was over 100 µM and the GI50 [10] was 11.1 µM. The TGI [10] was over 100 µM.

With `Cc1c(-c2ccc(C3CCCCC3)cc2)nc2ccc(F)cc2c1C(=O)O` the GI50 [1] was over 36.6 µM, the TGI [1] was over 100 µM and the GI50 [2] was 1 µM. For the same compound, the TGI [2] was over 100 µM, the GI50 [3] was 0.128 µM and the TGI [3] was over 100 µM. For the same compound, the GI50 [4] was 0.273 µM, the TGI [4] was over 100 µM and the GI50 [5] was over 76.2 µM. It also gave a TGI [5] of over 100 µM, a GI50 [6] of 8.9 µM and a TGI [6] of over 100 µM. For the same compound, the GI50 [7] was 0.322 µM, the TGI [7] was over 100 µM and the GI50 [8] was 10.7 µM. The TGI [8] was over 100 µM, the GI50 [9] was 0.311 µM and the TGI [9] was over 100 µM. For the same compound, the GI50 [10] was 0.0512 µM and the TGI [10] was over 100 µM.

Compound `Cc1c2ccn(O)cc2c(C)c2c1nc1ccccc12` has a TGI [1] of 55.6 µM, a TGI [2] of 55.8 µM and a TGI [3] of over 100 µM. It also gave a TGI [4] of over 100 µM, a TGI [5] of over 66.1 µM and a TGI [6] of over 100 µM. The TGI [7] was over 100 µM, the TGI [8] was 22.6 µM and the TGI [9] was over 100 µM. For the same compound, the TGI [10] was 17.1 µM.
